Reference: PMC9000336, “Development of Bicyclo[3.1.0]hexane-Based A3 Receptor Ligands: Closing the Gaps in the Structure–Affinity Relationships” (Molecules, 2022)
Where two headings read alike, the source gives them in different places.

Tests used:
[1] = target: T1, human adenosine A1 receptor (Homo sapiens, UniProt P30542); experiment: Radioligand displacement assay, human adenosine A1 receptor ([3H]DPCPX, CHOhA1R membranes); format: binding; details: for inhibition at 10 µM: test compound 10 µM
T1 construct: expressed in transfected cells; host or cells: CHO cells (CHOhA1R), gift of Prof; S. J. Hill; membrane preparation
T1 sequence (P30542 1-326): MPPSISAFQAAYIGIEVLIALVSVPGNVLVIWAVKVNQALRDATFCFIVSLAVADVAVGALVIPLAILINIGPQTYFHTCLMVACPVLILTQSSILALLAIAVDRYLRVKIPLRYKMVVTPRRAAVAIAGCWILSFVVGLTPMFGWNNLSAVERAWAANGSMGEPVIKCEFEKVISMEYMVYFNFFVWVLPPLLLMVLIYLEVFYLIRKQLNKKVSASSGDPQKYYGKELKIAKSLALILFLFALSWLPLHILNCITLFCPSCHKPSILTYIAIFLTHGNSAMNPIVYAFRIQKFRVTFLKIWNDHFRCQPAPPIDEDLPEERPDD
Experimental: (§1) Chinese hamster ovary (CHO) cells stably expressing the human adenosine A1 receptor (CHOhA1R) were kindly provided by Prof. S. J. Hill and CHO cells stably expressing the human adenosine A3 receptor (CHOhA3R) were a gift from Dr. K.-N. Klotz (University of Würzburg, Germany). Chinese hamster ovary cells stably expressing the human A1-receptor (CHOhA1R) or the human A3-receptor (CHOhA3R) were grown in Dulbecco’s Modified Eagle’s Medium (DMEM) and Ham’s F12 medium (1:1) supplemented with 10% (v/v) newborn calf serum, 50 µg/mL streptomycin, 50 IU/mL penicillin, and 200 µg/mL G418 at 37 °C and 5% CO2. […] All cells were grown to 80–90% confluency and detached from plates by scraping them into 5 mL phosphate-buffered saline. Detached cells were collected and centrifuged at 200 g for 5 min. Pellets derived from 100 15 cm Ø plates were pooled and resuspended in 70 mL of ice-cold 50 mM tris(hydroxymethyl)aminomethane (Tris)-HCl buffer, pH 7.4. A Heidolph Diax 900 homogenizer was used to homogenize the cell suspension. Membranes and the cytosolic fraction were separated by centrifugation at 100,000 g in a Beckman Optima LE-80 K ultracentrifuge (Beckman Coulter, Fullerton, CA, USA) at 4 °C for 20 min. The pellet was resuspended in 35 mL of the Tris-HCl buffer, and the homogenization and centrifugation steps were repeated. Tris-HCl buffer (25 mL) was used to resuspend the pellet, and adenosine deaminase (ADA) was added (0.8 U/mL) to break down endogenous adenosine. Membranes were stored in 250 µL and 500 µL aliquots at −80 °C. Total protein concentrations were measured using the bicinchoninic acid (BCA) method.
A1 Receptor: Membrane aliquots containing 5 µg (CHOhA1R) protein were incubated in a total volume of 100 µL assay buffer (50 mM Tris-HCl, pH 7.4) at 25 °C for 1 h. […] Nonspecific binding was determined in the presence of 100 µM N^6-cyclopentyladenosine (CPA). Incubations were terminated by rapid vacuum filtration to separate the bound and free radioligand through prewetted 96-well GF/B filter plates using a PerkinElmer Filtermate-harvester (Perkin Elmer, Groningen, the Netherlands). Filters were subsequently washed 12 times with ice-cold 50 mM Tris-HCl, pH 7.4.
(§2) The plates of all four adenosine receptor assays were dried at 55 °C after which MicroscintTM-20-cocktail was added (Perkin Elmer, Groningen, The Netherlands).
(§3) All experimental data were analyzed using the non-linear regression curve fitting program GraphPad Prism 7.0 (GraphPad Software Inc., San Diego, CA, USA). IC50 values obtained from competition displacement binding data were converted into Ki values using the Cheng–Prusoff equation.

[2] = target: T2, human adenosine A3 receptor (Homo sapiens, UniProt P0DMS8); experiment: Radioligand displacement assay, human adenosine A3 receptor ([3H]PSB11, CHOhA3R membranes); format: binding; details: for inhibition at 10 µM: test compound 10 µM
T2 construct: expressed in transfected cells; host or cells: CHO cells (CHOhA3R), gift of Dr. K.-N. Klotz (University of Würzburg); membrane preparation
T2 sequence (P0DMS8 1-318): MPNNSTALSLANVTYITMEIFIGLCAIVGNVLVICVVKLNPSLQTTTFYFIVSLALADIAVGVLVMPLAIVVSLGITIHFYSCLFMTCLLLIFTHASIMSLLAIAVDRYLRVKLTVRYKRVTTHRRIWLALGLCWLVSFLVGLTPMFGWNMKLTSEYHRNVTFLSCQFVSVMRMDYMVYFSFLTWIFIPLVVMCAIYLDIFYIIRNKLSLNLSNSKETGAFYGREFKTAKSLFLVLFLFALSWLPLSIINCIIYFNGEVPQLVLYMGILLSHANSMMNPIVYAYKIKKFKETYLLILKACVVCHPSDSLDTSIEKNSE
Experimental: as §1
A3 Receptor: Membrane aliquots containing 15 µg (CHOhA3R) total protein were incubated in a total volume of 100 µL assay buffer (50 mM Tris-HCl, pH 8.0, supplemented with 10 mM MgCl2, 1 mM EDTA and 0.01% (w/v) CHAPS) at 25 °C for 2 h. Radioligand displacement experiments were performed using six concentrations of competing ligand in the presence of 10 nM [^3H]8-ethyl-4-methyl-2-phenyl-(8R)-4,5,7,8-tetrahydro-1H-imidazo[2.1-i]purin-5-one ([^3H]PSB11). […] Nonspecific binding was determined in the presence of 100 µM NECA. Incubations were terminated by rapid vacuum filtration to separate the bound and free radioligand through prewetted 96-well GF/B filter plates using a PerkinElmer Filtermate-harvester (Perkin Elmer, Groningen, The Netherlands). Filters were subsequently washed 12 times with ice-cold 50 mM Tris-HCl supplemented with 10 mM MgCl2, and 1 mM EDTA, pH 8.0 for CHOhA3R.
as §2, §3

[3] = n = 3, [3H]DPCPX, read-out: A1 Ki ± SEM
[4] = n = 3, [3H]PSB11, read-out: A3 Ki ± SEM
[5] = footnote a: test compound 1 µM, n = 3
[6] = footnote a: tested at 1 µM, n = 3, read-out: A1 Ki (bound, footnote a)
[7] = footnote a: tested at 1 µM, n = 3, read-out: A3 Ki (bound, footnote a)

Structure (SMILES) | inhibition at 10 µM ([1]; n = 3) | inhibition at 10 µM ([2]; n = 3) | Ki [2, 4] | further results
OC[C@@]12C[C@@H]1[C@@H](n1cnc3c(Cl)cc(Cl)nc31)[C@H](O)[C@@H]2O [Compound 12, (1R,2R,3S,4R,5S)-4-(5,7-Dichloro-3H-imidazo[4,5-b]pyridin-3-yl)-1-(hydroxymethyl)bicyclo[3.1.0]hexane-2,3-diol] | – | – | > 10 µM | Ki [1, 3]: > 10 µM
CCN(CC)CC.CSc1nc(N)c2ncn([C@H]3[C@H](O)[C@H](O)[C@]4(CNc5c(O)c(=O)c5=O)C[C@H]34)c2n1 [Compound 47, Triethylammonium 2-{[(1R,2R,3S,4R,5S)-4-(6-Amino-2-methylthio-9H-purin-9-yl)-2,3-dihydroxybicyclo[3.1.0]hex-1-yl]methyl}amino-3,4-dioxocyclobut-1-en-1-olate] | – | – | – | A1 displacement at 1 µM [1, 5]: 1% ^a; A3 displacement at 1 µM [2, 5]: 6% ^a
COC(=O)c1cn(C[C@@]23C[C@@H]2[C@@H](n2cnc4c(N)nc(SC)nc42)[C@H](O)[C@@H]3O)nn1 [Compound 40, Methyl 1-{[(1R,2R,3S,4R,5S)-4-(6-amino-2-methylthio-9H-purin-9-yl)-2,3-dihydroxybicyclo[3.1.0]hex-1-yl]methyl}-1H-1,2,3-triazole-4-carboxylate] | 7% | 8% | – | –
Nc1ncnc2c1ncn2[C@H]1[C@H](O)[C@H](O)[C@]2(CO)C[C@H]12 [Compound 36, (N)-methanocarba adenosine] | – | – | 0.96 ± 0.05 µM | Ki [1, 3]: 6.1 ± 0.46 µM; fold lower affinity towards A1 receptor than A3 ([1]; relative to A3 Ki): 6 fold
CSc1nc(N)c2ncn([C@H]3[C@H](O)[C@H](O)[C@]4(Cn5cc(C(=O)O)nn5)C[C@H]34)c2n1 [Compound 44, 1-{[(1R,2R,3S,4R,5S)-4-(6-Amino-2-methylthio-9H-purin-9-yl)-2,3-dihydroxybicyclo[3.1.0]hex-1-yl]methyl}-1H-1,2,3-triazole-4-carboxylic acid] | – | – | – | Ki [1, 6]: > 1 µM; Ki [2, 7]: > 1 µM
CSc1nc(N)c2ncn([C@H]3[C@H](O)[C@H](O)[C@]4(Cn5cc(CO)nn5)C[C@H]34)c2n1 [Compound 39, (1R,2R,3S,4R,5S)-4-(6-Amino-2-methylthio-9H-purin-9-yl)-1-{[4-(hydroxymethyl)-1H-1,2,3-triazol-1-yl]methyl}bicyclo[3.1.0]hexane-2,3-diol] | 5% | 37% | – | –
COC(=O)CCc1cn(C[C@@]23C[C@@H]2[C@@H](n2cnc4c(N)nc(SC)nc42)[C@H](O)[C@@H]3O)nn1 [Compound 42, Methyl 3-(1-{[(1R,2R,3S,4R,5S)-4-(6-amino-2-methylthio-9H-purin-9-yl)-2,3-dihydroxybicyclo[3.1.0]hex-1-yl]methyl}-1H-1,2,3-triazol-4-yl)propanoate] | 19% | – | 6.35 ± 0.23 µM | –
CSc1nc(N)c2ncn([C@H]3[C@H](O)[C@H](O)[C@]4(Cn5cc(CCC(=O)O)nn5)C[C@H]34)c2n1 [Compound 46] | – | – | – | Ki [1, 6]: > 1 µM; Ki [2, 7]: > 1 µM
Nc1cc(Cl)nc2c1ncn2[C@H]1[C@H](O)[C@H](O)[C@]2(CO)C[C@H]12 [Compound 16, (1R,2R,3S,4R,5S)-4-(7-Amino-5-chloro-3H-imidazo[4,5-b]pyridin-3-yl)-1-(hydroxymethyl)bicyclo[3.1.0]hexane-2,3-diol] | 32% | – | 1.6 ± 0.11 µM | –
CSc1nc(N)c2ncn([C@H]3[C@H](O)[C@H](O)[C@]4(Cn5cc(CN)nn5)C[C@H]34)c2n1 [Compound 43, (1R,2R,3S,4R,5S)-4-(6-Amino-2-methylthio-9H-purin-9-yl)-1-{[4-(aminomethyl)-1H-1,2,3-triazol-1-yl]methyl}bicyclo[3.1.0]hexane-2,3-diol] | 5% | 13% | – | –

Further lines, with some results ahead:

inhibition at 10 µM ([1]; n = 3) | inhibition at 10 µM ([2]; n = 3) | Ki [2, 4] | Structure (SMILES) | further results
23% | 45% | – | CSc1cc(N)c2ncn([C@H]3[C@H](O)[C@H](O)[C@]4(CO)C[C@H]34)c2n1 [Compound 17, (1R,2R,3S,4R,5S)-4-(7-Amino-5-methylthio-3H-imidazo[4,5-b]pyridin-3-yl)-1-(hydroxymethyl)bicyclo[3.1.0]hexane-2,3-diol] | –
12% | – | 0.5 ± 0.01 µM | COc1ccc(CNc2cc(Cl)nc3c2ncn3[C@H]2[C@H](O)[C@H](O)[C@]3(CO)C[C@H]23)cc1 [Compound 15, (1R,2R,3S,4R,5S)-4-{5-Chloro-7-[(4-methoxy)benzylamino]-3H-imidazo[4,5-b]pyridin-3-yl}-1-(hydroxymethyl)bicyclo[3.1.0]hexane-2,3-diol] | –
21% | 26% | – | CSc1nc(N(Cc2ccccc2)Cc2ccccc2)c2ncn([C@H]3[C@H](O)[C@H](O)[C@]4(CCl)C[C@H]34)c2n1 [Compound 31, (1S,2R,3S,4R,5S)-4-[6-(Dibenzylamino)-2-methylthio-9H-purin-9-yl]-1-(chloromethyl)bicyclo[3.1.0]hexane-2,3-diol] | potency at the A3 receptor [2]: not potent
30% | – | 0.38 ± 0.01 µM | CSc1nc(N(Cc2ccccc2)Cc2ccccc2)c2ncn([C@H]3[C@H](O)[C@H](O)[C@]4(CO)C[C@H]34)c2n1 [Compound 30, (1R,2R,3S,4R,5S)-4-[6-(Dibenzylamino)-2-methylthio-9H-purin-9-yl]-1-(hydroxymethyl)bicyclo[3.1.0]hexane-2,3-diol] | A3R selectivity ([2]; versus other P1 receptor subtypes): high A3R selectivity
25% | – | 0.46 ± 0.02 µM | OC[C@@]12C[C@@H]1[C@@H](n1cnc3c(NCc4ccccc4)cc(Cl)nc31)[C@H](O)[C@@H]2O [Compound 13, (1R,2R,3S,4R,5S)-4-[7-(Benzylamino)-5-chloro-3H-imidazo[4,5-b]pyridin-3-yl]-1-(hydroxymethyl)bicyclo[3.1.0]hexane-2,3-diol] | –
20% | – | 1.51 ± 0.03 µM | CSc1cc(NCc2ccccc2)c2ncn([C@H]3[C@H](O)[C@H](O)[C@]4(CO)C[C@H]34)c2n1 [Compound 14, (1R,2R,3S,4R,5S)-4-[7-(Benzylamino)-5-methylthio-3H-imidazo[4,5-b]pyridin-3-yl]-1-(hydroxymethyl)bicyclo[3.1.0]hexane-2,3-diol] | –
5% | 4% | – | Nc1cc(Cl)c2ncn([C@H]3[C@H](O)[C@H](O)[C@]4(CO)C[C@H]34)c2n1 [Compound 11, (1R,2R,3S,4R,5S)-4-(5-Amino-7-chloro-3H-imidazo[4,5-b]pyridin-3-yl)-1-(hydroxymethyl)bicyclo[3.1.0]hexane-2,3-diol] | –
